Reference: ChEMBL document CHEMBL6109143, “Adamantane-Quinoxalone Hybrids: Precision Chemotypes and Their Molecular Mechanisms in Acute Myeloid Leukemia” (J Med Chem, 2025)
Values joined by “and” are separate entries in the source; they are usually repeats but may differ in a detail not shown here. Equal values may be shown once. Active and inactive are the calls of the source. No cut-off for these calls is given here.

What was measured:
[1] = tested on: Kasumi 1; experiment: Cytotoxicity against human Kasumi 1 cells assessed as reduction in cell viability at 50 uM incubated for 24 hrs by MTT assay relative to control; assay type: functional
[2] = tested on: CAL-27; experiment: Cytotoxicity against human CAL-27 cells assessed as cell viability at 1 to 50 uM incubated for 24 hrs by MTT assay; assay type: functional, cell-based; details: dose 1-50 µM
[3] = tested on: MDA-MB-231; experiment: Cytotoxicity against human MDA-MB-231 cells assessed as cell viability at 1 to 50 uM incubated for 24 hrs by MTT assay; assay type: functional, cell-based; details: dose 1-50 µM
[4] = tested on: A549; experiment: Cytotoxicity against human A549 cells assessed as cell viability at 1 to 50 uM incubated for 24 hrs by MTT assay; assay type: functional, cell-based; details: dose 1-50 µM
[5] = tested on: ARPE-19; experiment: Cytotoxicity against human ARPE-19 cells assessed as reduction in cell viability incubated for 24 hrs by MTT assay; assay type: toxicity, cell-based; details: arpe-19, 24 h
[6] = tested on: MCF-10A; experiment: Cytotoxicity against human MCF-10A cells assessed as cell viability incubated for 24 hrs by MTT assay; assay type: toxicity, cell-based
[7] = Cytotoxicity against human Oral epithelial cells assessed as cell viability incubated for 24 hrs by MTT assay; assay type: toxicity, cell-based
[8] = tested on: Kasumi 1; experiment: Cytotoxicity against human Kasumi 1 cells harboring chromosomal translocation(8;21) assessed as reduction in cell viability incubated for 24 hrs by MTT assay; assay type: functional, cell-based; details: Kasumi 1, 24 h
[9] = tested on: THP-1; experiment: Cytotoxicity against human THP-1 cells harboring chromosomal translocation(9;11) assessed as reduction in cell viability incubated for 24 hrs by MTT assay; assay type: functional, cell-based; details: THP-1, 24 h
[10] = tested on: Kasumi 1; experiment: Induction of cell cycle arrest in human Kasumi 1 cells assessed as increase in cells at G2/M phase at IC50 concentration incubated for 24 hrs by PI staining based flow cytometric analysis; assay type: functional
[11] = tested on: Kasumi 1; experiment: Induction of cell cycle arrest in human Kasumi 1 cells assessed as decrease in cells at S phase at IC50 concentration incubated for 24 hrs by PI staining based flow cytometric analysis; assay type: functional
[12] = tested on: Kasumi 1; experiment: Induction of cell cycle arrest in human Kasumi 1 cells assessed as increase in cells at G1 phase at IC50 concentration incubated for 24 hrs by PI staining based flow cytometric analysis (reference value: 66.25 %); assay type: functional
[13] = tested on: Kasumi 1; experiment: Induction of cell cycle arrest in human Kasumi 1 cells assessed as increase in cells at S phase at IC50 concentration incubated for 24 hrs by PI staining based flow cytometric analysis (reference value: 27.09 %); assay type: functional
[14] = tested on: Kasumi 1; experiment: Induction of cell cycle arrest in human Kasumi 1 cells assessed as increase in cells at G2 phase at IC50 concentration incubated for 24 hrs by PI staining based flow cytometric analysis (reference value: 6.65 %); assay type: functional
[15] = tested on: Kasumi 1; experiment: Induction of apoptosis in human Kasumi 1 cells assessed as viable cells at IC50 concentration incubated for 24 hrs by Annexin V/PI staining based flow cytometric analysis (reference value: 95.43 %); assay type: functional
[16] = tested on: Kasumi 1; experiment: Induction of apoptosis in human Kasumi 1 cells assessed as early apoptotic cells at IC50 concentration incubated for 24 hrs by Annexin V/PI staining based flow cytometric analysis (reference value: 2.38 %); assay type: functional
[17] = tested on: Kasumi 1; experiment: Induction of apoptosis in human Kasumi 1 cells assessed as late apoptotic cells at IC50 concentration incubated for 24 hrs by Annexin V/PI staining based flow cytometric analysis (reference value: 2.07 %); assay type: functional
[18] = tested on: Kasumi 1; experiment: Induction of apoptosis in human Kasumi 1 cells assessed as necrotic apoptotic cells at IC50 concentration incubated for 24 hrs by Annexin V/PI staining based flow cytometric analysis (reference value: 0.12 %); assay type: functional
[19] = tested on: Kasumi 1; experiment: Downregulation of MYCN gene expression in human Kasumi 1 cells at IC50 concentration incubated for 24 hrs by RNA sequencing analysis; assay type: functional, cell-based
[20] = tested on: Kasumi 1; experiment: Downregulation of BCL6 gene expression in human Kasumi 1 cells at IC50 concentration incubated for 24 hrs by RNA sequencing analysis; assay type: functional, cell-based
[21] = tested on: Kasumi 1; experiment: Downregulation of PIM1 gene expression in human Kasumi 1 cells at IC50 concentration incubated for 24 hrs by RNA sequencing analysis; assay type: functional, cell-based
[22] = tested on: Kasumi 1; experiment: Downregulation of CDK1 protein expression in human Kasumi 1 cells at IC50 concentration incubated for 24 hrs by LC-MS/MS analysis; assay type: functional, cell-based
[23] = tested on: Kasumi 1; experiment: Downregulation of MELK protein expression in human Kasumi 1 cells at IC50 concentration incubated for 24 hrs by LC-MS/MS analysis; assay type: functional, cell-based
[24] = tested on: Kasumi 1; experiment: Downregulation of UGFR1 gene expression in human Kasumi 1 cells at IC50 concentration incubated for 24 hrs by RNA sequencing analysis; assay type: functional, cell-based
[25] = tested on: Kasumi 1; experiment: Downregulation of HMMR gene expression in human Kasumi 1 cells at IC50 concentration incubated for 24 hrs by RNA sequencing analysis; assay type: functional, cell-based
[26] = tested on: Kasumi 1; experiment: Downregulation of CD109 gene expression in human Kasumi 1 cells at IC50 concentration incubated for 24 hrs by RNA sequencing analysis; assay type: functional, cell-based
[27] = tested on: Kasumi 1; experiment: Upregulation of NR5A1 gene expression in human Kasumi 1 cells at IC50 concentration incubated for 24 hrs by RNA sequencing analysis; assay type: functional, cell-based
[28] = tested on: Kasumi 1; experiment: Upregulation of KLF2 gene expression in human Kasumi 1 cells at IC50 concentration incubated for 24 hrs by RNA sequencing analysis; assay type: functional, cell-based
[29] = tested on: Kasumi 1; experiment: Upregulation of DACH1 gene expression in human Kasumi 1 cells at IC50 concentration incubated for 24 hrs by RNA sequencing analysis; assay type: functional, cell-based
[30] = tested on: Kasumi 1; experiment: Upregulation of CSF3R gene expression in human Kasumi 1 cells at IC50 concentration incubated for 24 hrs by RNA sequencing analysis; assay type: functional, cell-based
[31] = tested on: Kasumi 1; experiment: Upregulation of interferon-alpha response related genes in human Kasumi 1 cells at IC50 concentration incubated for 24 hrs by RNA sequencing analysis; assay type: functional, cell-based
[32] = tested on: Kasumi 1; experiment: Upregulation of interferon-gamma response related genes in human Kasumi 1 cells at IC50 concentration incubated for 24 hrs by RNA sequencing analysis; assay type: functional, cell-based
[33] = tested on: Kasumi 1; experiment: Downregulation of KRAS signaling pathway related genes in human Kasumi 1 cells at IC50 concentration incubated for 24 hrs by RNA sequencing analysis; assay type: functional, cell-based
[34] = tested on: Kasumi 1; experiment: Downregulation of E2F target related genes in human Kasumi 1 cells at IC50 concentration incubated for 24 hrs by RNA sequencing analysis; assay type: functional, cell-based
[35] = tested on: Kasumi 1; experiment: Downregulation of G2M checkpoint related genes in human Kasumi 1 cells at IC50 concentration incubated for 24 hrs by RNA sequencing analysis; assay type: functional, cell-based
[36] = tested on: Kasumi 1; experiment: Downregulation of TNF-alpha signaling related genes in human Kasumi 1 cells at IC50 concentration incubated for 24 hrs by RNA sequencing analysis; assay type: functional, cell-based
[37] = tested on: Kasumi 1; experiment: Downregulation of KRAS signaling related genes in human Kasumi 1 cells at IC50 concentration incubated for 24 hrs by RNA sequencing analysis; assay type: functional, cell-based
[38] = tested on: Kasumi 1; experiment: Downregulation of estrogen pathway related genes in human Kasumi 1 cells at IC50 concentration incubated for 24 hrs by RNA sequencing analysis; assay type: functional, cell-based
[39] = tested on: Kasumi 1; experiment: Effect on oxidative phosphorylation related protein expression in human Kasumi 1 cells by GSEA; assay type: functional, cell-based
[40] = tested on: Kasumi 1; experiment: Effect on MYC target related protein expression in human Kasumi 1 cells by GSEA; assay type: functional, cell-based
[41] = tested on: Kasumi 1; experiment: Effect on E2F target related protein expression in human Kasumi 1 cells by GSEA; assay type: functional, cell-based
[42] = tested on: Kasumi 1; experiment: Effect on glycolysis pathway related protein expression in human Kasumi 1 cells by GSEA; assay type: functional, cell-based
[43] = tested on: Kasumi 1; experiment: Effect on mTORC1 signaling related protein expression in human Kasumi 1 cells by GSEA; assay type: functional, cell-based
[44] = tested on: Kasumi 1; experiment: Effect on hypoxia pathway related protein expression in human Kasumi 1 cells by GSEA; assay type: functional, cell-based
[45] = tested on: Kasumi 1; experiment: Effect on adipogenesis pathway related protein expression in human Kasumi 1 cells by GSEA; assay type: functional, cell-based

Cc1ccccc1CN1C(=O)C(C23CC4CC(CC(C4)C2)C3)Nc2ccccc21 (configuration not stated)
Activity [1]: >30%

O=C1C(C23CC4CC(CC(C4)C2)C3)Nc2ccccc2N1c1ccc(OC(F)(F)F)cc1 (configuration not stated)
Activity [1]: >30%

CN1C(=O)C(C23CC4CC(CC(C4)C2)C3)Nc2ccccc21 (configuration not stated)
Activity [1]: >30%

Cc1cc2c(cc1C)N(Cc1ccccc1)C(=O)C(C13CC4CC(CC(C4)C1)C3)N2 (configuration not stated)
Activity [1]: >30%

CSc1ccc(CN2C(=O)C(C34CC5CC(CC(C5)C3)C4)Nc3ccccc32)cc1 (configuration not stated)
Activity [1]: >30%

O=C1C(C23CC4CC(CC(C4)C2)C3)Nc2cc(Cl)c(Cl)cc2N1Cc1ccccc1 (configuration not stated)
Activity [1]: >30%

O=C1C(C23CC4CC(CC(C4)C2)C3)Nc2cc3ccccc3cc2N1Cc1ccccc1 (configuration not stated)
Activity [1]: >30%

O=C1C(C23CC4CC(CC(C4)C2)C3)Nc2ccccc2N1c1ccccc1 (configuration not stated)
Activity [2]: inactive | Activity [3]: inactive | Activity [4]: inactive | Activity [1]: <30% | Activity [5]: Non-toxic | Activity [6]: Non-toxic | Activity [7]: Non-toxic | IC50 [8]: 2.09 µM | IC50 [9]: 40.9 µM | Activity [10]: Active | Activity [11]: Active | Activity [12]: 68.99% | Activity [13]: 18.69% | Activity [14]: 12.31% | Activity [15]: 83.88% | Activity [16]: 10.74% | Activity [17]: 5.37% | Activity [18]: 0.02% | Activity [19]: Active | Activity [20]: Active | Activity [21]: Active | Activity [22]: Active | Activity [23]: Active | Activity [24]: Active | Activity [25]: Active | Activity [26]: Active | Activity [27]: Active | Activity [28]: Active | Activity [29]: Active | Activity [30]: Active | Activity [31]: Active | Activity [32]: Active | Activity [33]: Active | Activity [34]: Active | Activity [35]: Active | Activity [36]: Active | Activity [37]: Active | Activity [38]: Active | Activity [39]: Active | Activity [40]: Active | Activity [41]: Active | Activity [42]: Active | Activity [43]: Active | Activity [44]: Active | Activity [45]: Active

CCCCCCCCCCCCN1C(=O)C(C23CC4CC(CC(C4)C2)C3)Nc2ccccc21 (configuration not stated)
Activity [1]: >30%

Cc1ccc(CN2C(=O)C(C34CC5CC(CC(C5)C3)C4)Nc3cc(-c4ccc5c(c4)NC(C46CC7CC(CC(C7)C4)C6)C(=O)N5Cc4ccc(C)cc4)ccc32)cc1 (configuration not stated)
Activity [1]: >30%

CC(C)CCCC(C)CCN1C(=O)C(C23CC4CC(CC(C4)C2)C3)Nc2ccccc21 (configuration not stated)
Activity [1]: >30%

O=C1C(C23CC4CC(CC(C4)C2)C3)Nc2ccccc2N1Cc1cccc(-c2ccccc2)c1 (configuration not stated)
Activity [1]: >30%

O=C1C(C23CC4CC(CC(C4)C2)C3)Nc2ccccc2N1c1ccc2ccccc2c1 (configuration not stated)
Activity [1]: >30%

O=C1C(C23CC4CC(CC(C4)C2)C3)Nc2ccccc2N1Cc1ccc(F)cc1 (configuration not stated)
Activity [1]: >30%

C=CCN1C(=O)C(C23CC4CC(CC(C4)C2)C3)Nc2ccccc21 (configuration not stated)
Activity [1]: <30% | IC50 [8]: 37.5 µM | IC50 [9]: > 50 µM

O=C1C(C23CC4CC(CC(C4)C2)C3)Nc2ccccc2N1Cc1ccc(Br)cc1 (configuration not stated)
Activity [1]: >30%

CC(C)CCN1C(=O)C(C23CC4CC(CC(C4)C2)C3)Nc2ccccc21 (configuration not stated)
Activity [1]: >30%

O=C1C(C23CC4CC(CC(C4)C2)C3)Nc2ccccc2N1c1ccc(-c2ccccc2)cc1 (configuration not stated)
Activity [1]: >30%

Cc1ccc(CN2C(=O)C(C34CC5CC(CC(C5)C3)C4)Nc3ccccc32)cc1 (configuration not stated)
Activity [1]: >30%

CCCCCCN1C(=O)C(C23CC4CC(CC(C4)C2)C3)Nc2ccccc21 (configuration not stated)
Activity [1]: >30%

O=C1C(C23CC4CC(CC(C4)C2)C3)Nc2ccccc2N1Cc1ccccc1 (configuration not stated)
Activity [1]: >30%

CCN1C(=O)C(C23CC4CC(CC(C4)C2)C3)Nc2ccccc21 (configuration not stated)
Activity [1]: >30%

O=C1C(C23CC4CC(CC(C4)C2)C3)Nc2ccccc2N1CC1CC1 (configuration not stated)
Activity ([1]; 24 h, 50 µM): <30% and >30% | IC50 [8]: 47 µM | IC50 [9]: > 50 µM

C=CCCCCN1C(=O)C(C23CC4CC(CC(C4)C2)C3)Nc2ccccc21 (configuration not stated)
Activity [1]: >30%
